Experimental data as given in publication PMC6080781, “ATP competes with PIP2 for binding to gelsolin” (PLoS ONE, 2018).

What was measured:
gelsolin [1] = biological target: T1, gelsolin (Homo sapiens, UniProt P06396); experiment: Labeled/unlabeled ATP competition on gelsolin (ATP-N anisotropy); type: binding; settings: absence of calcium
T1 construct: His tag (cleaved yes); made in house; host or cells: E. coli Rosetta2 (DE3) pLysS, pSY5 plasmid
Description: The dissociation constants for ATP and PIP2 were calculated using a hyperbolic model from anisotropy data that had reached saturation during the gelsolin titrations Eq 2: r=rf+(rb−rf)(Kd+[G]+[L]−(Kd+[G]+[L])^2−4[G][L]/2[L]) (2) where rf is the anisotropy of free ligand, rb is the anisotropy of gelsolin-bound ligand, [L] is the total concentration of ligand, Kd is the dissociation constant and [G] is the total concentration of gelsolin. The anisotropy of 0.5 μM ATP-N was measured in the presence of gelsolin concentrations: 0, 0.2, 1.5, 2, 3, 5 and 8 μM. Saturation was evident at 5 μM characterized by an anisotropy value of 0.15 ± 0.006. […]
Supplementary file pone.0201826.s002.pdf: S2 Fig ATP binding to gelsolin under actin polymerization conditions. (A) The calcium-dependent gelsolin binding affinity for ATP under actin polymerization conditions was determined by monitoring the change in ATP-N anisotropy on gelsolin titration at different calcium ion concentrations. Each data point arises from the Kd calculated from a titration similar to Fig 1A. […] (B) The anisotropy of ATP-N (0.5 μM) bound to gelsolin (5 μM) was measured upon titrating with unlabeled ATP in the absence of calcium. […]

calcium-free gelsolin = biological target: calcium-free gelsolin; parameters: method as in PMID 10336615; settings: cited from earlier work
gelsolin [2] = biological target: T1, gelsolin; experiment: Steady-state fluorescence anisotropy of PIP2-F binding to gelsolin; settings: 5 μM gelsolin
Description: His-tagged human wild-type gelsolin was expressed in E. coli strain Rosetta2 (DE3) pLysS cells from a pSY5 plasmid. […] Traces of calcium were removed by dialysis (2 mM Tris-HCl, 1 mM EGTA, pH 7.4, overnight). Rabbit skeletal muscle actin was prepared from acetone powder (Pel-Freez Biologicals) in a protocol modified from Spudich and Watt. Actin was stored in buffer A (2 mM Tris-HCl, 0.2 mM ATP (ATP disodium trihydrate, Sigma-Aldrich), 0.1 mM CaCl2 (pCa 4), 0.1 mM DTT and 0.005% NaN3, pH 7.4). Alexa Fluor^TM 488 C5 Maleimide (Life Technologies) was used to label cysteine residues of gelsolin based on the manufacturer’s recommendations (Thermo Fisher Scientific).
We used a fluorescent derivative of PIP2 (PtdIns-(4,5)-P2-fluorescein, Cayman Chemicals, NU-10010388, λex = 493 nm, λem = 520 nm, abbreviated as PIP2-F) and a fluorescent derivative of ATP (N^6-(6-amino)hexyl-ATP-ATTO-532, Jena Bioscience, NU-805-532, λex = 532 nm, λem = 553 nm, abbreviated as ATP-N) as probes for the binding of PIP2 and ATP to gelsolin. Fluorescence intensities were measured on a Safire^2 monochromator microplate reader (TECAN) at 22°C. Steady-state fluorescence anisotropy values were determined according to Eq 1 [65], where IVV and IVH, respectively, are the intensities of vertically and horizontally polarized emission on excitation with vertically polarized light, with the correction factor, G, being the ratio of IVH/IVV.
The dissociation constants for ATP and PIP2 were calculated using a hyperbolic model from anisotropy data that had reached saturation during the gelsolin titrations Eq 2: r=rf+(rb−rf)(Kd+[G]+[L]−(Kd+[G]+[L])^2−4[G][L]/2[L]) (2) where rf is the anisotropy of free ligand, rb is the anisotropy of gelsolin-bound ligand, [L] is the total concentration of ligand, Kd is the dissociation constant and [G] is the total concentration of gelsolin. The anisotropy of 0.5 μM ATP-N was measured in the presence of gelsolin concentrations: 0, 0.2, 1.5, 2, 3, 5 and 8 μM. […] The calcium and magnesium sensitivities of ATP binding to gelsolin were characterized by the change in anisotropy of solutions containing 0.5 μM ATP-N in the presence of 5 μM of gelsolin over a range of divalent cation concentrations of pCa 2–12 or pMg 1–12, where pCa and pMg refer to[…]. […] Anisotropy of 0.5 μM or 0.25 μM solutions of PIP2-F in the presence of 5 μM gelsolin was used to probe the changes in binding of the complexes under different calcium, magnesium, salt and ATP conditions.

gelsolin [3] = biological target: T1, gelsolin; experiment: Confocal microscopy of Alexa488-labeled gelsolin on PIP2-containing phospholipid vesicles; settings: 0.5 mM ATP, absence of divalent cations
Description: Phospholipid vesicles were prepared by a modified protocol from James H. Morrissey, Dept. of Biochemistry, University of Illinois at Urbana-Champaign, Urbana, IL 61801, USA (https://tf7.org). A mixture of 1% PIP2 (PtdIns-(4,5)-P2(1,2-dipalmitoyl)) (Cayman Chemicals), 79% PC (L-α-phosphatidylcholine) (Sigma-Aldrich) and 20% PS (3-sn-phosphatidyl-L-serine) (Sigma-Aldrich) was dissolved in 20 μM rhodamine 590 N-succinimidyl ester (Sigma-Aldrich) in chloroform. […]
10% (v/v) rhodamine590-filled phospholipid vesicles and 5 μM Alexa488-labeled gelsolin were incubated together and a drop of the mixture was placed on a clean glass slide, which was then covered by and separated from a second slide by a parafilm gasket. […] Fluorescence emission-based imaging was carried out using a Zeiss LSM 510 META Confocal Microscope. The two different fluorophores were detected in two separate channels; Alexa488 (gelsolin) was excited by 477 nm laser light and emission was detected in the 505–530 nm channel, while rhodamine590 (phospholipid vesicles) was excited by 545 nm laser light and emission was detected in the 585–630 nm channel.

gelsolin [4] = settings: equilibrium dialysis, high NaCl concentrations; read-out: dissociation constant for gelsolin; cited from earlier work
[5] = Calcium-dependent fluorescence emission of FURA-2FF; type: binding; settings: inferred from unchanged FURA-2FF profile with 20 μM PIP2
Description: Supplementary file pone.0201826.s005.pdf: S5 Fig Assessment of the effects of calcium and ATP on the binding of ATP-N and PIP2-F to gelsolin. (A) Kds were calculated from the fit data with Eq 2 of gelsolin:PIP2-F binding under different calcium concentrations in the absence or presence of ATP. In the absence of ATP, PIP2-F (0.5 μM) binds to gelsolin, as reflected by thehigh affinity, across a wide range of calcium concentrations. […] (B) In the absence of gelsolin, calcium directly precipitates ATP-N (C, open triangles) with a half-maximum value of 70.4 ± 0.7 μM. Magnesium has no effect on the fluorescence emission of ATP-N either in the absence (M, orange circles) or presence of 10 μM calcium (MC, purple squares). Data were fitted with simple sigmoidal curves. (C) The reported FURA-2FF dissociation constant for calcium ions is 25 μM (A.G. Scientific Inc.). The calcium-dependent fluorescence emission profile of FURA-2FF (2 μM) over pCa range of 5–7 was similar in the presence and absence of 20 μM PIP2, which were fitted with simple sigmoidal curves. […] The measurement was carried out with a Perkin Elmer LS-55 spectrofluorimeter (λex = 340 nm, λem = 505 nm). (PDF) Click here for additional data file.

[6] = Critical micelle concentration by dynamic light scattering; type: physicochemical
Description: tested, PIP2-F was free from micelle formation at concentrations of 0.5 µM or below, whereas […]
Methods: The critical micelle concentrations of PIP2 and 1-(1-octadecanoyl-fluorescein-2R-octadecanoylphosphatidyl)inositol-4,5-bisphosphate (Cayman Chemical, abbreviated as PIP2-F) were determined by dynamic light scattering (Huang et al., 2011). Fifty microliter samples were prepared by serial dilution of PIP2 or PIP2-F into a low salt buffer (2 mM Tris-HCl, pH 7.4), or the same buffer supplemented with 100 mM KCl, 1 mM MgCl2, and/or 1 mM CaCl2. After incubation for 30 min, the samples were centrifuged at 15,000 x g for 10 min, transferred into a 384-well clear bottom plate, and light scattering was measured using a Wyatt Dynapro plate reader at room temperature. The concentrations of PIP2-F were subsequently determined by light absorbance at 494 nm with a Nanodrop spectrophotometer. […]
Huang, W., Jiang, D., Wang, X., Wang, K., Sims, C. E., Allbritton, N. L. and Zhang, Q.

T1 sequence (P06396 28-782): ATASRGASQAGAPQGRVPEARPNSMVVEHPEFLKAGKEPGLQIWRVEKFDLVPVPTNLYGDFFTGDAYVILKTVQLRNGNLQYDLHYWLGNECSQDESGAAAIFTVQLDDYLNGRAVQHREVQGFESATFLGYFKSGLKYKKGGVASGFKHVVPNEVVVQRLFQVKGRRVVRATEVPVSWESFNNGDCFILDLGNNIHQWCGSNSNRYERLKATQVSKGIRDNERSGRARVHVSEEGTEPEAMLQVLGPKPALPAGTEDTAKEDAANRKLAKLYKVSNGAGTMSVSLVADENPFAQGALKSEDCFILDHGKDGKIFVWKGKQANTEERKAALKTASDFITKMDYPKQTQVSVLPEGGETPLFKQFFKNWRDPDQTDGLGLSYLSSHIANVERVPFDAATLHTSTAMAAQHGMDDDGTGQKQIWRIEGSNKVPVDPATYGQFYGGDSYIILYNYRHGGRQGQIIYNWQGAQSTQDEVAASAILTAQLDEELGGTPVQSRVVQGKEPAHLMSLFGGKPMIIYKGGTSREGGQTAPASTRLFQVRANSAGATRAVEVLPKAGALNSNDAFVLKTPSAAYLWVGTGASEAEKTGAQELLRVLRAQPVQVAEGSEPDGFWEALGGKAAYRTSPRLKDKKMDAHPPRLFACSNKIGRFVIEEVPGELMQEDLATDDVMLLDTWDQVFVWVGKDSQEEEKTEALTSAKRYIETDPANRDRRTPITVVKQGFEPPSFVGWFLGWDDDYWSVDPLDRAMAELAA

Row | ATP concentration sufficient to remove the gelsolin bound ATP-N (gelsolin [1]; 0.5 μM ATP-N, 5 μM gelsolin) [µM] | Kd (gelsolin [1]; 50 mM KCl, 1 mM MgCl2 (actin polymerizing salt), competition with ATP-N) [nM] | Kd [5] [nM] | CMC of PIP2 ([6]; 100 mM KCl and 1 mM MgCl2, nominal concentrations) [µM] | CMC of PIP2 ([6]; 100 mM KCl, nominal concentrations) [µM] | CMC of PIP2 ([6]; absence of cations, nominal concentrations) [µM] | CMC of PIP2 ([6]; calcium in the buffer, considered an overestimation) | Compound | Kd (calcium-free gelsolin; Gremm and Wegner, read-out: Kd of calcium-free gelsolin for ATP) [nM] | ATP binding to gelsolin (calcium-free gelsolin; solutions with more than 10 μM Ca2+ (pCa 5)) | effect of ATP on PIP2-F anisotropy (gelsolin [2]; 0.5 mM ATP, 0.25 μM PIP2-F, 100 mM K+, 1 mM Mg2+, entire calcium range, absence and presence of 50 μM actin) | effect of ATP on the gelsolin/PIP2-F complex (gelsolin [2]; 0.2 or 0.5 mM ATP, 0.5 μM PIP2-F) | release of gelsolin-Alexa488 from PIP2-containing vesicles (gelsolin [3]) | Kd (gelsolin [4]) [nM]
1 | 50 | 2200 | – | – | – | – | – | Nc1ncnc2c1ncn2[C@@H]1O[C@H](COP(=O)(O)OP(=O)(O)OP(=O)([O-])[O-])[C@@H](O)[C@H]1O.O.O.O.[Na+].[Na+] [ATP, ATP disodium trihydrate] | 32000 | No ATP binding to gelsolin is detectable | almost complete loss of PIP2-F anisotropy | complete dissociation of the gelsolin/PIP2-F complex | the majority of gelsolin-Alexa488 was released from the vesicles | 280
2 | – | – | ≥ 25000 | < 1 | 2 | 20 | ~ 10 μM | phosphatidylinositol 4,5-bisphosphate [PIP2] | – | – | – | – | – | –
